# Test results taken from US4401604A, “Process for preparing thiosulfenamide derivatives of N-phosphonomethylglycine triesters” (Monsanto Company, priority 1981, dated 1983).
# Legend:
# Format in all cases: in vivo
# Barnyardgrass [1] = assay: Post-emergence herbicidal activity, greenhouse; conditions: 4 WAT
# Text: (§1) A good grade of top soil is placed in aluminum pans having holes in the bottom and compacted to a depth of 0.95 to 1.27 cm. from the top of the pan. A predetermined number of seeds of each of several dicotyledonous and monocotyledonous annual plant species and/or vegetative propagules for the perennial plant species are placed on the soil and pressed into the soil surface. The seeds and/or vegetative propagules are covered with soil and leveled. The pans are then placed on a sand bench in the greenhouse and watered from below as needed. After the plants reach the desired age (two to three weeks), each pan except for the control pans is removed individually to a spraying chamber and sprayed by means of an atomizer operating at a positive air pressure of approximately 1.46 kg/cm^2 absolute. The atomizer contains 6 ml. of a solution or suspension of the chemical. In that 6 ml., is an amount of a cyclohexanone emulsifying agent mixture to give a spray solution or suspension which contains about 0.4% by weight of the emulsifier. The spray solution or suspension contains a sufficient amount of the candidate chemical in order to give application rates corresponding to those set forth in the tables. The spray solution is prepared by taking an aliquot of a 1.0% by weight stock solution or suspension of the candidate chemical in an organic solvent such as acetone or tetrahydrofuran or in water. The emulsifying agent employed is a mixture comprising 35 weight percent butylamine dodecylbenzene sulfonate and 65 weight percent of a tall oil ethylene oxide condensate having about 11 moles of ethylene oxide per mole of tall oil. The pans are returned to the greenhouse and watered as before and the injury to the plants as compared to the control is observed at approximately two and four weeks as indicated in the tables under WAT and the results recorded. In some instances, the two-week observations are omitted.
# (§2) The post-emergence herbicidal activity index used in Table I is as follows:
# (§3) The plant species utilized in these tests are identified by letter in accordance with the following legend: […]
# Canada Thistle [2] = assay: Post-emergence herbicidal activity, greenhouse; conditions: Table I, 4 WAT
# Text: as §1, §2, §3
# Cocklebur [3] = assay: Post-emergence herbicidal activity, greenhouse; conditions: 4 WAT
# Text: as §1, §2, §3
# Crabgrass = assay: Post-emergence herbicidal activity, greenhouse; conditions: Table II, 4 WAT
# Text: as §1, §2, §3
# Downy Brome [4] = assay: Post-emergence herbicidal activity, greenhouse; conditions: 4 WAT
# Text: as §1, §2, §3
# Hemp Sesbania = assay: Post-emergence herbicidal activity, greenhouse; conditions: Table II, 4 WAT
# Text: as §1, §2, §3
# Johnsongrass [5] = assay: Post-emergence herbicidal activity, greenhouse; conditions: Table I, 4 WAT
# Text: as §1, §2, §3
# Lambsquarters [6] = assay: Post-emergence herbicidal activity, greenhouse; conditions: 4 WAT
# Text: as §1, §2, §3
# Morningglory [7] = assay: Post-emergence herbicidal activity, greenhouse; conditions: 4 WAT
# Text: as §1, §2, §3
# Panicum Spp = assay: Post-emergence herbicidal activity, greenhouse; conditions: Table II, 4 WAT
# Text: as §1, §2, §3
# Quackgrass [8] = assay: Post-emergence herbicidal activity, greenhouse; conditions: Table I, 4 WAT
# Text: as §1, §2, §3
# Rice = assay: Post-emergence herbicidal activity, greenhouse; conditions: Table II, 4 WAT
# Text: as §1, §2, §3
# Smartweed [9] = assay: Post-emergence herbicidal activity, greenhouse; conditions: 4 WAT
# Text: as §1, §2, §3
# Sorghum = assay: Post-emergence herbicidal activity, greenhouse; conditions: Table II, 4 WAT
# Text: as §1, §2, §3
# Soybean = assay: Post-emergence herbicidal activity, greenhouse; conditions: Table II, 4 WAT
# Text: as §1, §2, §3
# Sugar Beet = assay: Post-emergence herbicidal activity, greenhouse; conditions: Table II, 4 WAT
# Text: as §1, §2, §3
# Velvetleaf [10] = assay: Post-emergence herbicidal activity, greenhouse; conditions: 4 WAT
# Text: as §1, §2, §3
# Wheat = assay: Post-emergence herbicidal activity, greenhouse; conditions: Table II, 4 WAT
# Text: as §1, §2, §3
# Wild Buckwheat = assay: Post-emergence herbicidal activity, greenhouse; conditions: Table II, 4 WAT
# Text: as §1, §2, §3
# Yellow Nutsedge [11] = assay: Post-emergence herbicidal activity, greenhouse; conditions: Table I, 4 WAT
# Text: as §1, §2, §3
# Barnyardgrass [12] = assay: Pre-emergent herbicidal activity; conditions: Table III; 11.2 kg/h; 2 WAT
# Text: (§4) A good grade of top soil is placed in aluminum pans and compacted to a depth of 0.95 to 1.27 cm. from the top of each pan. A predetermined number of seeds or vegetative propagules of each of several plant species are placed on top of the soil in each pan and then pressed down. Herbicidal compositions prepared as in the previous example are applied by admixture with or incorporation in the top layer of soil.
# (§5) In this method, the soil required to cover the seeds and propagules is weighed and admixed with a herbicidal composition containing a known amount of the active ingredient (compound of this invention). The pans are then filled with the admixture and leveled. Watering is carried out by permitting the soil in the pans to absorb moisture through apertures in the pan bottoms. The seed and propagule containing pans are placed on a wet sand bench and maintained for approximately two weeks under ordinary conditions of sunlight and watering. At the end of this period, the number of emerged plants of each species is noted and compared to an untreated control.
# (§6) The pre-emergent herbicidal activity index used below is based upon average percent control of each species as follows:
# (§7) Plant species in the table are identified by the same code letters used in the previous example.
# Canada Thistle [13] = assay: Pre-emergent herbicidal activity; conditions: Table III; 11.2 kg/h; 2 WAT
# Text: as §4, §5, §6, §7
# Cocklebur [14] = assay: Pre-emergent herbicidal activity; conditions: Table III; 11.2 kg/h; 2 WAT
# Text: as §4, §5, §6, §7
# Downy Brome [15] = assay: Pre-emergent herbicidal activity; conditions: Table III; 11.2 kg/h; 2 WAT
# Text: as §4, §5, §6, §7
# Johnsongrass [16] = assay: Pre-emergent herbicidal activity; conditions: Table III; 11.2 kg/h; 2 WAT
# Text: as §4, §5, §6, §7
# Lambsquarters [17] = assay: Pre-emergent herbicidal activity; conditions: Table III; 11.2 kg/h; 2 WAT
# Text: as §4, §5, §6, §7
# Morningglory [18] = assay: Pre-emergent herbicidal activity; conditions: Table III; 11.2 kg/h; 2 WAT
# Text: as §4, §5, §6, §7
# Quackgrass [19] = assay: Pre-emergent herbicidal activity; conditions: Table III; 11.2 kg/h; 2 WAT
# Text: as §4, §5, §6, §7
# Smartweed [20] = assay: Pre-emergent herbicidal activity; conditions: Table III; 11.2 kg/h; 2 WAT
# Text: as §4, §5, §6, §7
# Velvetleaf [21] = assay: Pre-emergent herbicidal activity; conditions: Table III; 11.2 kg/h; 2 WAT
# Text: as §4, §5, §6, §7
# Yellow Nutsedge [22] = assay: Pre-emergent herbicidal activity; conditions: Table III; 11.2 kg/h; 2 WAT
# Text: as §4, §5, §6, §7
structure (smiles),measurement,setting,value
"CCCCCCCCSSN(CC(=O)OC)CP(=O)(Oc1ccccc1)Oc1ccccc1 [II, Glycine, N-[(diphenoxyphosphinyl)methyl]-N-(octyldithio)-, methyl ester]",post-emergence herbicidal activity index,"Barnyardgrass [1]; Table I, 5.6 kg/h",2 (50-74% control)
same,post-emergence herbicidal activity index,"Barnyardgrass [1]; Table I, 11.2 kg/h",2 (50-74% control)
same,post-emergence herbicidal activity index,"Barnyardgrass [1]; Table II, 0.28 kg/h",0 (0- 24% control)
same,post-emergence herbicidal activity index,"Barnyardgrass [1]; Table II, 1.12 kg/h",1 (25-49% control)
same,post-emergence herbicidal activity index,"Barnyardgrass [1]; Table II, 5.6 kg/h",3 (75-99% control)
same,post-emergence herbicidal activity index,Canada Thistle [2]; 5.6 kg/h,0 (0- 24% control)
same,post-emergence herbicidal activity index,Canada Thistle [2]; 11.2 kg/h,1 (25-49% control)
same,post-emergence herbicidal activity index,"Cocklebur [3]; Table I, 5.6 kg/h",4 (100% control)
same,post-emergence herbicidal activity index,"Cocklebur [3]; Table I, 11.2 kg/h",3 (75-99% control)
same,post-emergence herbicidal activity index,"Cocklebur [3]; Table II, 0.28 kg/h",0 (0- 24% control)
same,post-emergence herbicidal activity index,"Cocklebur [3]; Table II, 1.12 kg/h",1 (25-49% control)
same,post-emergence herbicidal activity index,"Cocklebur [3]; Table II, 5.6 kg/h",3 (75-99% control)
same,post-emergence herbicidal activity index,Crabgrass; 0.28 kg/h,0 (0- 24% control)
same,post-emergence herbicidal activity index,Crabgrass; 1.12 kg/h,2 (50-74% control)
same,post-emergence herbicidal activity index,Crabgrass; 5.6 kg/h,4 (100% control)
same,post-emergence herbicidal activity index,"Downy Brome [4]; Table I, 5.6 kg/h",2 (50-74% control)
same,post-emergence herbicidal activity index,"Downy Brome [4]; Table I, 11.2 kg/h",1 (25-49% control)
same,post-emergence herbicidal activity index,"Downy Brome [4]; Table II, 0.28 kg/h",0 (0- 24% control)
same,post-emergence herbicidal activity index,"Downy Brome [4]; Table II, 1.12 kg/h",0 (0- 24% control)
same,post-emergence herbicidal activity index,"Downy Brome [4]; Table II, 5.6 kg/h",2 (50-74% control)
same,post-emergence herbicidal activity index,Hemp Sesbania; 0.28 kg/h,0 (0- 24% control)
same,post-emergence herbicidal activity index,Hemp Sesbania; 1.12 kg/h,0 (0- 24% control)
same,post-emergence herbicidal activity index,Hemp Sesbania; 5.6 kg/h,1 (25-49% control)
same,post-emergence herbicidal activity index,Johnsongrass [5]; 5.6 kg/h,3 (75-99% control)
same,post-emergence herbicidal activity index,Johnsongrass [5]; 11.2 kg/h,3 (75-99% control)
same,post-emergence herbicidal activity index,"Lambsquarters [6]; Table I, 5.6 kg/h",3 (75-99% control)
same,post-emergence herbicidal activity index,"Lambsquarters [6]; Table I, 11.2 kg/h",4 (100% control)
same,post-emergence herbicidal activity index,"Lambsquarters [6]; Table II, 0.28 kg/h",0 (0- 24% control)
same,post-emergence herbicidal activity index,"Lambsquarters [6]; Table II, 1.12 kg/h",2 (50-74% control)
same,post-emergence herbicidal activity index,"Lambsquarters [6]; Table II, 5.6 kg/h",3 (75-99% control)
same,post-emergence herbicidal activity index,"Morningglory [7]; Table I, 5.6 kg/h",2 (50-74% control)
same,post-emergence herbicidal activity index,"Morningglory [7]; Table I, 11.2 kg/h",2 (50-74% control)
same,post-emergence herbicidal activity index,"Morningglory [7]; Table II, 0.28 kg/h",1 (25-49% control)
same,post-emergence herbicidal activity index,"Morningglory [7]; Table II, 1.12 kg/h",1 (25-49% control)
same,post-emergence herbicidal activity index,"Morningglory [7]; Table II, 5.6 kg/h",3 (75-99% control)
same,post-emergence herbicidal activity index,Panicum Spp; 0.28 kg/h,0 (0- 24% control)
same,post-emergence herbicidal activity index,Panicum Spp; 1.12 kg/h,0 (0- 24% control)
same,post-emergence herbicidal activity index,Panicum Spp; 5.6 kg/h,3 (75-99% control)
same,post-emergence herbicidal activity index,Quackgrass [8]; 5.6 kg/h,3 (75-99% control)
same,post-emergence herbicidal activity index,Quackgrass [8]; 11.2 kg/h,1 (25-49% control)
same,post-emergence herbicidal activity index,Rice; 0.28 kg/h,0 (0- 24% control)
same,post-emergence herbicidal activity index,Rice; 1.12 kg/h,1 (25-49% control)
same,post-emergence herbicidal activity index,Rice; 5.6 kg/h,3 (75-99% control)
same,post-emergence herbicidal activity index,"Smartweed [9]; Table I, 5.6 kg/h",2 (50-74% control)
same,post-emergence herbicidal activity index,"Smartweed [9]; Table I, 11.2 kg/h",4 (100% control)
same,post-emergence herbicidal activity index,"Smartweed [9]; Table II, 0.28 kg/h",0 (0- 24% control)
same,post-emergence herbicidal activity index,"Smartweed [9]; Table II, 1.12 kg/h",1 (25-49% control)
same,post-emergence herbicidal activity index,"Smartweed [9]; Table II, 5.6 kg/h",2 (50-74% control)
same,post-emergence herbicidal activity index,Sorghum; 0.28 kg/h,0 (0- 24% control)
same,post-emergence herbicidal activity index,Sorghum; 1.12 kg/h,1 (25-49% control)
same,post-emergence herbicidal activity index,Sorghum; 5.6 kg/h,3 (75-99% control)
same,post-emergence herbicidal activity index,Soybean; 0.28 kg/h,0 (0- 24% control)
same,post-emergence herbicidal activity index,Soybean; 1.12 kg/h,0 (0- 24% control)
same,post-emergence herbicidal activity index,Soybean; 5.6 kg/h,2 (50-74% control)
same,post-emergence herbicidal activity index,Sugar Beet; 0.28 kg/h,0 (0- 24% control)
same,post-emergence herbicidal activity index,Sugar Beet; 1.12 kg/h,0 (0- 24% control)
same,post-emergence herbicidal activity index,Sugar Beet; 5.6 kg/h,3 (75-99% control)
same,post-emergence herbicidal activity index,"Velvetleaf [10]; Table I, 5.6 kg/h",1 (25-49% control)
same,post-emergence herbicidal activity index,"Velvetleaf [10]; Table I, 11.2 kg/h",3 (75-99% control)
same,post-emergence herbicidal activity index,"Velvetleaf [10]; Table II, 0.28 kg/h",0 (0- 24% control)
same,post-emergence herbicidal activity index,"Velvetleaf [10]; Table II, 1.12 kg/h",0 (0- 24% control)
same,post-emergence herbicidal activity index,"Velvetleaf [10]; Table II, 5.6 kg/h",2 (50-74% control)
same,post-emergence herbicidal activity index,Wheat; 0.28 kg/h,0 (0- 24% control)
same,post-emergence herbicidal activity index,Wheat; 1.12 kg/h,0 (0- 24% control)
same,post-emergence herbicidal activity index,Wheat; 5.6 kg/h,3 (75-99% control)
same,post-emergence herbicidal activity index,Wild Buckwheat; 0.28 kg/h,0 (0- 24% control)
same,post-emergence herbicidal activity index,Wild Buckwheat; 1.12 kg/h,0 (0- 24% control)
same,post-emergence herbicidal activity index,Wild Buckwheat; 5.6 kg/h,3 (75-99% control)
same,post-emergence herbicidal activity index,Yellow Nutsedge [11]; 5.6 kg/h,1 (25-49% control)
same,post-emergence herbicidal activity index,Yellow Nutsedge [11]; 11.2 kg/h,2 (50-74% control)
same,pre-emergent herbicidal activity index,Barnyardgrass [12],0 (0-24% control)
same,pre-emergent herbicidal activity index,Canada Thistle [13],1 (25-49% control)
same,pre-emergent herbicidal activity index,Cocklebur [14],0 (0-24% control)
same,pre-emergent herbicidal activity index,Downy Brome [15],0 (0-24% control)
same,pre-emergent herbicidal activity index,Johnsongrass [16],2 (50-74% control)
same,pre-emergent herbicidal activity index,Lambsquarters [17],0 (0-24% control)
same,pre-emergent herbicidal activity index,Morningglory [18],0 (0-24% control)
same,pre-emergent herbicidal activity index,Quackgrass [19],0 (0-24% control)
same,pre-emergent herbicidal activity index,Smartweed [20],0 (0-24% control)
same,pre-emergent herbicidal activity index,Velvetleaf [21],0 (0-24% control)
same,pre-emergent herbicidal activity index,Yellow Nutsedge [22],0 (0-24% control)
